Data set [1] can be described thus: Selectivity index, ratio of IC50 for CHOK1 cells to MIC for Mycobacterium tuberculosis H37Rv. The class given is toxicity. The note with it: hamster, CHO-K1 cells.
For data set [2], the system named is Mycobacterium tuberculosis. The experiment in a line: Antimycobacterial activity against Mycobacterium tuberculosis H37Rv assessed as inhibition of bacterial growth by MABA assay. The class given is functional. For orientation: Resazurin is reduced to fluorescent resorufin, in cell work by metabolically active cells.
Data set [3] has as its system Plasmodium falciparum. Kind of data set: Antimalarial activity against erythrocytic stage of Plasmodium falciparum 3D7 incubated for 50 hrs. The class given is functional, organism-based. The note with it: 3D7, 50 h.
Data set [4] can be described thus: Selectivity index, ratio of IC50 for CHOK1 cells to IC50 for Plasmodium falciparum 3D7. In kind it is toxicity. The note with it: hamster, CHO-K1 cells; read-out: Ratio IC50.
The subject of data set [5] is CHO-K1. The experiment in a line: Cytotoxicity against CHOK1 cells. The class given is cell-based. The note with it: Cricetulus griseus.
The nature of data set [6]: Cytotoxicity against human HEK cells. In kind it is cell-based. The note with it: HEK293.
Data set [7] relates to NRK-49F. Kind of data set: Cytotoxicity against rat NRK-49F cells. The class given is cell-based.
Data set [8] deals with Plasmodium falciparum. Kind of data set: Antimalarial activity against early ring stage of Plasmodium falciparum 3D7 assessed as parasite growth arrest at early trophozite stage at 3 times of IC50 incubated for 48 hrs by giemsa staining based light microscopy. In kind it is functional, organism-based.
The subject of data set [9] is Plasmodium falciparum. The experiment in a line: Antimalarial activity against drug-resistant Plasmodium falciparum Dd2. The class given is functional, organism-based.
Data set [10] relates to Plasmodium falciparum. Kind of data set: Parasiticidal activity against early ring stage of Plasmodium falciparum 3D7 assessed as reduction in parasite growth incubated for 48 hrs followed by compound washed off and measured after 48 hrs incubation in normal medium. In kind it is functional, organism-based.
Data set [11] relates to Plasmodium falciparum. Kind of data set: Antimalarial activity against Plasmodium falciparum 3D7 assessed as inhibition of parasite growth incubated for 96 hrs. The note with it: 3D7, 96 h. The class given is functional, organism-based.

Structures are written as SMILES. In brackets after ≈: the same amount, converted by molar mass. Activity calls are given as the source filed them.

The record followed here is ChEMBL document CHEMBL4627294, “Synthesis and efficacy of pyrvinium-inspired analogs against tuberculosis and malaria pathogens” (Bioorg Med Chem Lett, 2020).

In general, MIC refers to the smallest concentration in the dilution series that meets the test's criterion for growth inhibition. For orientation: IC50 means the concentration that gives 50% inhibition.

With `Cc1cc(/C=C/c2ccc3cc(N(C)C)ccc3[n+]2C)c(C)n1-c1ccccc1`, the results for the selectivity ratio in data set [1] and in data set [4] were 1.73 and 14, respectively. For the same molecule, the minimum inhibitory concentration (MIC) in [2] was found to be 6.25 µM. Besides, the IC50 amounted to 774 nM in data set [3], 10.9 µM in [5], 16 µM in data set [6] and 20.2 µM in data set [7].

Take `CN(C)c1ccc2c(ccc(/C=C/c3ccc[nH]3)[n+]2C)c1`: the values for the selectivity ratio in data set [1] and in [4] were 3.11 and 50.5, respectively. For the same molecule, the MIC in [2] is 25 µM. For the same molecule, the IC50 in data set [3] was 1540 nM; in data set [5], 77.8 µM; in data set [6], 66.9 µM; in data set [7] it was 76 µM.

In the case of `CN(C)c1ccc2c(ccc(/C=C/c3ccccc3[N+](=O)[O-])[n+]2C)c1`, the selectivity ratio in data set [1] was determined as 1.47; in data set [4], 20.5. Also, the MIC in data set [2] is 50 µM. The IC50 in data set [3] is 3600 nM; in data set [5] it was 73.9 µM; in data set [6], 66.7 µM; in [7], 69.5 µM.

On to `CN(C)c1ccc2c(ccc(/C=C/c3cc(Cl)ccc3O)[n+]2C)c1`, for which the figures for the selectivity ratio in data set [1] and in [4] were 9.72 and 68.7, respectively. For the same molecule, in data set [2], the MIC worked out at 3.12 µM. Further, the half-maximal inhibitory concentration (IC50) stood at 441 nM in [3], 30.3 µM in data set [5], 15.3 µM in [6] and 12 µM in [7].

For `CN(C)c1ccc2c(ccc(/C=C/c3cc(Cl)cc(Cl)c3O)[n+]2C)c1`, the selectivity ratio in data set [1] is 2.18; in data set [4], 22.1. The MIC in [2] stood at 25 µM. Also, the IC50 was determined as 2470 nM in data set [3], 54.7 µM in data set [5], 50.1 µM in data set [6] and 49.1 µM in data set [7].

As to `CN(C)c1ccc2c(ccc(/C=C/c3ccc(C#N)cc3)[n+]2C)c1`, the selectivity ratio amounted to 1.05 in data set [1] and 553 in data set [4]. The MIC in [2] was found to be 50 µM. The half-maximal inhibitory concentration (IC50) in data set [3] was 94 nM; in [5], 52.6 µM; in [6], 62.1 µM; in [7], 50.2 µM.

For the molecule `CO[C@H]1/C=C/O[C@@]2(C)Oc3c(C)c(O)c4c(O)c(c(/C=N/N5CCN(C)CC5)c(O)c4c3C2=O)NC(=O)/C(C)=C\C=C\[C@H](C)[C@H](O)[C@@H](C)[C@@H](O)[C@@H](C)[C@H](OC(C)=O)[C@@H]1C` [RIFAMPIN], the MIC in data set [2] was found to be 0.24 µM (≈ 0.198 µg/mL).

Regarding `CN(C)c1ccc2c(ccc(/C=C/c3c(Cl)cccc3Cl)[n+]2C)c1`, the values for the selectivity ratio in data set [1] and in data set [4] were 2.53 and 344, respectively. Also, the result in [8] and in [10] was Active. For the same molecule, the MIC in data set [2] turned out to be 3.12 µM. Also, the IC50 came out at 23 nM in data set [3]; 53 nM in data set [9]; 7.92 µM in [5]; 5.62 µM in [6]; 2.37 nM in data set [11]; 5.23 µM in [7].

As for `CN(C)c1ccc2c(ccc(/C=C/c3cccc(C#N)c3)[n+]2C)c1`, the selectivity ratio worked out at 3.5 in data set [1] and 404 in data set [4]. Moreover, the MIC in data set [2] was 25 µM. The IC50 came to 217 nM in [3], 87.6 µM in data set [5], 56 µM in [6] and 59.5 µM in data set [7].

For `CN(C)c1ccc2c(ccc(/C=C/c3c[nH]c4ccccc34)[n+]2C)c1`, the selectivity ratio in [1] was 3.64; in data set [4], 188. In addition, the minimum inhibitory concentration (MIC) in [2] stood at 3.12 µM. Further, the 50% inhibitory concentration (IC50) in data set [3] amounted to 60 nM; in data set [9] it was 97 nM; in data set [5], 11.4 µM; in data set [6], 10.6 µM; in [7], 11.3 µM.

`CCc1nc(N)nc(N)c1-c1ccc(Cl)cc1` [PYRIMETHAMINE] registered an IC50 in [3] of 11 nM.

For `CN(C)c1ccc2c(ccc(/C=C/c3ccccc3)[n+]2C)c1`, the figures for the selectivity ratio in data set [1] and in [4] were less than 0.41 and 467, respectively. For the same molecule, the MIC in data set [2] is more than 100 µM. The IC50 was 89 nM in [3], 41.6 µM in data set [5], 39.8 µM in data set [6] and 42.1 µM in data set [7].

With `Cc1cc(/C=C/c2ccc3cc(N(C)C)ccc3[n+]2C)c(C)n1-c1ccccn1`, the selectivity ratio stood at 2.42 in [1] and 66.2 in data set [4]. Further, the MIC in [2] was determined as 6.25 µM. Further, the IC50 in data set [3] came out at 228 nM; in data set [5], 15.2 µM; in [6], 14.6 µM; in [7] it was 12.7 µM.

For the molecule `C[C@@H]1CC[C@H]2[C@@H](C)C(=O)O[C@@H]3O[C@@]4(C)CC[C@@H]1[C@]32OO4` [ARTEMISININ], the IC50 turned out to be 25 nM in data set [3] and 21 nM in [9].

For `CN(C)c1ccc2c(ccc(/C=C/c3ccc(Cl)c(Cl)c3)[n+]2C)c1`, the figures for the selectivity ratio in data set [1] and in data set [4] were 3.98 and 142, respectively. Also, the MIC in [2] is 3.12 µM. Further, the IC50 in [3] was 87 nM; in data set [5], 12.4 µM; in data set [6] it was 8.56 µM; in data set [7] it was 11.3 µM.
